Measurements published in patent publication US8435992B2, “Multiple myeloma treatments” (Pharma Mar S.A., priority 2008, dated 2013).

Experiments:
MM1S cells [1] = assay: Combination with antimyeloma agents, MTT assay, Chou Talalay combination index; format: cell-based, human; details: 72 hours; for combination index (CI): Chou and Talalay method
Method: FIG. 5. PM00104 potentiates the antimyeloma action of conventional and novel antimyeloma agents. MM1S cells were treated with suboptimal concentrations of PM00104 (Zalypsis, Z) and other antimyeloma agents such as Dexamethasone (Dex), melphalan (Mel), doxorubicin (Dox), bortezomib (Bort) and lenalidomide (Len) in double (FIG. 5A) and triple combinations (FIG. 5B). Cell viability was analyzed by MTT assay.
MM1S cells were treated for 72 hours, as described in example 1, with combinations of suboptimal doses of PM00104 and other antimyeloma agents such as dexamethasone, melphalan, doxorubicin, bortezomib and lenalidomide, in double and triple combinations. Cell viability was analyzed by MTT assay as described in example 1. The potency of the combination was quantified with the Calcusyn software (Biosoft, Ferguson, Mo.), which is based in the Chou Talalay method, that calculates a combination index (CI) with the following interpretation: CI>1: antagonistic effect, CI=1: additivity and CI<1 synergistic effect.

U266 = assay: MTT viability assay, MM cell line panel; format: cell-based; details: Homo sapiens, U-266, 48 hours
Method: (§1) Antitumor activity of PM00104 in MM was evaluated by using a cell line panel comprising the following 9 MM cell lines: MM1S, MM1R, MM144, RPMI8226, RPMI-LR5, U266, U266-LR7, OPM-1, and OPM-2. These cell lines were grown in RPMI 1640 medium with L-glutamine supplemented with antibiotics (penicillin at 100 U/mL, streptomycin at 100 μg/mL) and 10% fetal bovine serum (FBS) at 37° C. in a humidified atmosphere in the presence of 5% CO2-95% air.
(§2) Cell lines were treated with increasing concentrations of the PM00104 (0.1-50 nM) for 24, 48 and 72 hours, and viability was analyzed by using 3-(4,5-dimethylthiazol-2-yl)-2,5-diphenyltetrazolium bromide (MTT) colorimetric assay. Briefly, MM cell lines were seeded at a density of 50,000 cells/200 […] medium per well in 48-well plates, and treated with a determined drug dose and time. Two hours before the end of the treatment, a MTT solution (5 mg/mL) in PBS) was added and the tetrazolium salt was reduced by metabolically active cells to coloured formazan crystals. After solubilization of these crystals by overnight incubation with 10% SDS-HCl solution, absorbance was measured at 570 nm with correction at 630 nm. Results are presented as the mean±SD of quadruplicates of an experiment that was repeated at least twice.

U266-LR7 = assay: MTT viability assay, MM cell line panel; format: cell-based; details: U266-LR7 (melphalan resistant), 48 hours
Method: as §1, §2

OPM-1 = assay: MTT viability assay, MM cell line panel; format: cell-based; details: Homo sapiens; OPM-1, MTT, 48 hours
Method: as §1, §2

OPM-2 = assay: MTT viability assay, MM cell line panel; format: cell-based; details: Homo sapiens; OPM-2, MTT, 48 hours
Method: as §1, §2

RPMI-LR5 = assay: MTT viability assay, MM cell line panel; format: cell-based; details: RPMI-LR5 (melphalan resistant), 48 hours
Method: as §1, §2

MM1R = assay: MTT viability assay, MM cell line panel; format: cell-based
Method: as §1, §2

RPMI8226 = assay: MTT viability assay, MM cell line panel; format: cell-based; details: Homo sapiens, RPMI-8226, 48 hours
Method: as §1, §2

MM144 = assay: MTT viability assay, MM cell line panel; format: cell-based
Method: as §1, §2

[2] = test system: myelomatous plasma cells from bone marrow samples of MM patients; assay: Ex vivo apoptosis (Annexin V) in bone marrow cells from MM patients; format: cell-based, human; details: 1-50 nM, 18 hours
Method: FIG. 2. Freshly isolated bone marrow cells obtained from six MM patients were treated ex vivo with PM00104 (1-50 nM) for 18 hours. After the incubation period, cells were stained with the combination of Annexin V-FITC, and three monoclonal antibodies against plasma cell surface antigens (CD38, CD56 and CD45) which allow the analysis of the induction of apoptosis in the myelomatous population. Results are given as the percentage of Annexin V positive cells related to the percentage of viable cells in the untreated sample.
Additionally, the effect of PM00104 was further investigated ex vivo in cells isolated from bone marrow (BM) samples obtained from six patients with MM. Samples were lysed with ammonium chloride in order to remove red blood cells, and white cells were maintained in RPMI-1640 containing antibiotics (penicillin 100 U/ml, streptomycin 100 μg/ml) and 20% FBS. […] A total of 50,000 cells were acquired on a FACScalibur flow cytometer (BD Biosciences) and analyzed with the “Paint-a-Gate” program. Apoptosis was analyzed based on the Annexin-V positivity in the different populations: tumour PCs as well as in normal residual lymphocytes and granulo-monocytes. The percentage of Annexin V positive cells after treatment with PM00104 was calculated over the Annexin V negative cells (viable cells) in the control samples (without treatment).

[3] = Systemic toxicity and body weight in xenografted mice; format: in vivo
Method: (§3) The in vivo efficacy of PM00104 was studied in a model of human plasmocytoma xenografted in CB17-SCID mice. These experiments were performed using the very sensitive cell line MM1S and the less sensitive one OPM-1. Two cohorts of thirty mice were subcutaneously injected with each cell line and mice were randomized into three groups receiving vehicle alone, 0.8 mg/kg of PM00104, or 1 mg/Kg PM00104 intravenously (iv) once weekly for three doses.
(§4) CB17-SCID mice (The Jackson Laboratory, Bar Harbor, Me., USA) were subcutaneously inoculated into the right flank with 3×10^6 MM1S or OPM1 cells in 100 μL of RPMI-1640 medium and 100 μL of Matrigel (Becton Dickinson). When tumours became palpable, mice received PM00104 or vehicle alone. Treatment with PM00104 was given iv, at doses of 0.8 mg/kg and 1 mg/kg once weekly for three doses. The control group received the vehicle alone (sterile water for injection plus saline).

[4] = test system: BMSCs derived from a MM patient; assay: MTT cytotoxicity on BMSCs; format: cell-based, human; details: 48 hours
Method: (§5) FIG. 3. PM00104 overcomes the protective effects of IL-6, IGF-I, and adherence to patient BMSCs. MM1S cells were treated for 48 hours with indicated concentrations of PM00104 in the presence or absence of IL-6 (FIG. 3A), IGF-I (FIG. 3B), or BMSCs derived from a MM patient (FIG. 3C). DNA synthesis was determined by measuring BrdU incorporation during the last 8 hours of 48-hour cultures. Additionally, BMSCs were cultured with different doses of PM00104 for 48 hours and the cytotoxicity was analyzed by MTT assay (FIG. 3D). Data is presented as the mean±SD of quadruplicates.

MM1S plasmocytomas = assay: Human plasmocytoma xenograft in CB17-SCID mice (MM1S); format: in vivo; details: for tumor volume (mean±SD): after 15 days of treatment
Method: as §3, §4
(§6) Caliper measurements of the tumour diameters were performed every day, and the tumour volume was estimated as the volume of an ellipse using the following formula: V=4/3π×(a/2)×(b/2)^2, where “a” and “b” correspond to the longest and shortest diameter, respectively. Animals were euthanized when their tumours reached 2 cm. Differences in tumour volumes between treated and control groups were evaluated using 1-way analysis of variance and Bonferroni post hoc tests. Survival was estimated from the day of initiation of treatment, and statistical differences were assessed by Kaplan-Meier curves with the Log Rank test. Statistical analyses were performed with the SPSS-15.0 software (SPSS Inc. Chicago, Ill., USA) and statistical significance was defined as p<0.05.

OPM-1 plasmocytomas = assay: Human plasmocytoma xenograft in CB17-SCID mice (OPM-1); format: in vivo; details: for tumor volume (mean±SD): after 14 days of treatment
Method: as §3, §4, §6

MM1S = assay: MTT viability assay, MM cell line panel; format: cell-based, human
Method: as §1, §2

MM1S cells [5] = assay: BrdU uptake of MM1S cells with IL-6, IGF-I or co-cultured BMSCs; format: cell-based, human; details: 48 hours
Method: as §5
The presence of the BM microenvironment confers protection to MM through their adhesion or through the production of several cytokines such as IL-6 or IGF-I. In order to test whether PM00104 was able to inhibit this protective effect of the BM microenvironment, MM1S cells were incubated with IL-6 (1 nM) or IGF-I (10 nM), or co-cultured with BM stromal cells (BMSCs) for 48 hours, and then treated with increasing concentrations of PM00104. BMSCs were plated in 96-well culture dishes (50,000 cells/well) and allowed to reach confluence during 48 hours. Then, 30,000 myeloma cells were plated in RPMI 1640 containing 10% serum. Proliferation of MM cells was then assessed by Bromodeoxyuridine (BrdU) uptake (Maiso P et al. Br. J. Haematol. 2008, 141, 470-482). BrdU was added for the last 8 hours, and BrdU uptake was measured using a commercial kit (Roche Biochemicals), following the manufacturer's instructions.

[6] = 0.8 mg/kg iv once weekly for three doses
[7] = 1 mg/kg iv once weekly for three doses
[8] = OPM-1, 0.8 mg/kg iv once weekly for three doses
[9] = OPM-1, 1 mg/kg iv once weekly for three doses

COc1c(C)cc2c(c1O)[C@@H]1[C@@H]3Cc4c(OC(C)=O)c(C)c5c(c4[C@H](CNC(=O)/C=C/c4cccc(C(F)(F)F)c4)N3[C@@H](O)[C@H](C2)N1C)OCO5 [PM00104]
effect of combination on cell viability (MM1S cells [1]; with bortezomib): promising additive/synergistic results
efficacy of triple combination vs respective double combinations (MM1S cells [1]; with dexamethasone + doxorubicin): significantly improved the efficacy
efficacy of triple combination vs respective double combinations (MM1S cells [1]; with dexamethasone + lenalidomide): significantly improved the efficacy
efficacy of triple combination vs respective double combinations (MM1S cells [1]; with dexamethasone + melphalan): significantly improved the efficacy
combination index (CI) (MM1S cells [1]; with dexamethasone): 0.78
combination index (CI) (MM1S cells [1]; with doxorubicin): 0.64
combination index (CI) (MM1S cells [1]; with lenalidomide): 0.55
combination index (CI) (MM1S cells [1]; with melphalan): 0.48
IC50 (U266): 1 to 2 nM
IC50 (U266-LR7): 1 to 2 nM
IC50 (OPM-1): 1 to 2 nM
IC50 (OPM-2): 1 to 2 nM
IC50 (RPMI-LR5): 1 to 2 nM
IC50 at 48 hours (MM1R): picomolar concentrations
IC50 (RPMI8226): 1 to 2 nM
IC50 at 48 hours (MM144): picomolar concentrations
sensitivity of patient samples (Annexin V positive cells) ([2]; four out of six samples (patients 1, 6, 3 and 5)): very sensitive to low concentrations
sensitivity of patient samples (Annexin V positive cells) ([2]; patient 4, secondary plasma cell leukemia): intermediate sensitivity
systemic toxicity ([3]; 0.8 and 1 mg/kg iv once weekly for three doses): no significant systemic toxicity
weight loss (of body weight as compared to the controls) ([3]; highest of PM00104 doses): around 10%
cytotoxic effect on BMSCs [4]: very resistant
median±SE survival (MM1S plasmocytomas; [6]): 52 ± 4.8 days
tumor volume (mean±SD) (MM1S plasmocytomas; [6]): 420±242 mm^3
median±SE survival (MM1S plasmocytomas; [7]): 59 ± 5.5 days
tumor volume (mean±SD) (MM1S plasmocytomas; [7]): 176±78 mm^3
median±SE survival (OPM-1 plasmocytomas; [8]): 21 ± 0.8 days
tumor volume (mean±SD) (OPM-1 plasmocytomas; [8]): 1879±731 mm^3
median±SE survival (OPM-1 plasmocytomas; [9]): 23 ± 1.1 days
tumor volume (mean±SD) (OPM-1 plasmocytomas; [9]): 1042±596 mm^3
IC50 at 48 hours (MM1S): picomolar concentrations
effect on protective effect due to adhesion of plasma cells to BMSCs (BrdU uptake) (MM1S cells [5]; MM1S co-cultured with BMSCs): largely inhibited
effect on proliferative advantage conferred by IGF-I (BrdU uptake) (MM1S cells [5]; MM1S, IGF-I 10 nM): completely abrogated
effect on proliferative advantage conferred by IL-6 (BrdU uptake) (MM1S cells [5]; MM1S, IL-6 1 nM): completely abrogated
